Results taken from PMC12860872, “Preclinical evaluation of DOTAGA.Glu.(FAPI)2 and DO3A.Glu.(FAPI)2 as theranostics with human dosimetry extrapolation to lutetium-177 and terbium-161 analogs” (European Journal of Nuclear Medicine and Molecular Imaging, 2025).
Where “and” joins values, the source holds several entries; their conditions need not be identical. Equal values may be shown once.

Test: Extrapolated human dosimetry (OLINDA/EXM, ICRP-89 phantoms)
Description: To address inter-animal variability, the TIACs for each source organ were calculated from both the mean nTACs and the nTACs obtainend from fitting the mean ± 1 standard deviation (SD) of the normalized time-activity data, providing upper and lower bounds.
The mice-to-human TIAC extrapolation accounted for species-specific differences in relative source organ masses, m(organ), as compared to the total body weight (WB), for the mice (m) and human (h) models respectively.
(§1) The human organ masses, m(organ)h, were obtained from ICRP-89 adult male and female reference phantoms, while the murine organ masses, m(organ)m, were derived from the standard MOBY mouse model. The extrapolated human TIACs, TIACh were entered in the OLINDA/EXM software to compute the absorbed doses to target organs and the effective dose for adult male, female, and gender-averaged human models. […]
The TIACs, for [177Lu]Lu-DOTAGA.Glu.(FAPI)2 and [177Lu]Lu-DO3A.Glu.(FAPI)2, were determined by time integration of the nTACs. To account for the inter-animal variability, the TIACs for each source organ were calculated using both the mean nTACs and the nTACs obtainend from fitting the mean ±1 standard deviation (SD) of the normalized time-activity data. This approach provided the upper and the lower bounds for the estimated TIACs.
The mice-to-human TIAC extrapolation was obtained considering the different (species-specific) relative source organ masses, m(organ), as compared to the total body weight (WB), for the mice (m) and human (h) models respectively.
as §1, with “the” for “ICRP-89”, “models phantoms defined in ICRP-89,” for “phantoms,”, “TIACs values, TIACh, for each source organ” for “TIACs, TIACh”, “input into the kinetic module of” for “entered in”, “software (version 2.1, HERMES Medical Solutions AB, Stockholm, Sweden)” for “software”

[1] = ICRP 89 Adult Female, extrapolated
[2] = ICRP 89 Adult Male, extrapolated

Q: What does the source list for `N#C[C@@H]1CC(F)(F)CN1C(=O)CNC(=O)c1ccnc2ccc(OCCCCNC(=O)CC[C@H](NC(=O)CCC(C(=O)O)N3CCN(CC(=O)[O-])CCN(CC(=O)[O-])CCN(CC(=O)[O-])CC3)C(=O)NCCCCOc3ccc4nccc(C(=O)NCC(=O)N5CC(F)(F)C[C@H]5C#N)c4c3)cc12.[161Tb+3]` (stereo partly drawn) [[^161Tb]Tb-DOTAGA.Glu.(FAPI)2]?
A: Absorbed dose (AD average) Adrenals [1]: 2.06E-02 mGy/Mbq; Absorbed dose (AD average) Brain [1]: 4.11E-02 mGy/Mbq; Absorbed dose (AD average) Breasts [1]: 3.94E-02 mGy/Mbq; Absorbed dose (AD average) Esophagus [1]: 4.21E-02 mGy/Mbq; Absorbed dose (AD average) Eyes [1]: 4.11E-02 mGy/Mbq; Absorbed dose (AD average) Gallbladder Wall [1]: 4.47E-02 mGy/Mbq; Absorbed dose (AD average) Heart Wall [1]: 6.03E-02 mGy/Mbq; Absorbed dose (AD average) Kidneys [1]: 6.83E-02 ± 0.003 mGy/Mbq and 6.83E-02 mGy/Mbq; Absorbed dose (AD average) Left colon [1]: 4.20E-02 mGy/Mbq; Absorbed dose (AD average) Liver [1]: 2.78E-01 ± 0.02 mGy/Mbq and 2.78E-01 mGy/Mbq; Absorbed dose (AD average) Lungs [1]: 6.37E-02 ± 0.01 mGy/Mbq and 6.37E-02 mGy/Mbq; Absorbed dose (AD average) Osteogenic Cells [1]: 1.23E-01 ± 0.01 mGy/Mbq and 1.23E-01 mGy/Mbq; Absorbed dose (AD average) Ovaries [1]: 4.17E-02 mGy/Mbq; Absorbed dose (AD average) Pancreas [1]: 5.34E-02 ± 0.003 mGy/Mbq and 5.34E-02 mGy/Mbq; Absorbed dose (AD average) Rectum [1]: 4.17E-02 mGy/Mbq; Absorbed dose (AD average) Red Marrow [1]: 4.59E-02 ± 0.01 mGy/Mbq and 4.59E-02 mGy/Mbq; Absorbed dose (AD average) Right colon [1]: 4.24E-02 mGy/Mbq; Absorbed dose (AD average) Salivary Glands [1]: 1.73E-01 ± 0.01 mGy/Mbq and 1.73E-01 mGy/Mbq; Absorbed dose (AD average) Small Intestine [1]: 4.17E-02 mGy/Mbq; Absorbed dose (AD average) Spleen [1]: 4.83E-02 ± 0.01 mGy/Mbq and 4.83E-02 mGy/Mbq; Absorbed dose (AD average) Stomach Wall [1]: 4.21E-02 mGy/Mbq; Absorbed dose (AD average) Thymus [1]: 4.16E-02 mGy/Mbq; Absorbed dose (AD average) Thyroid [1]: 4.05E-02 mGy/Mbq; Absorbed dose (AD average) Total Body [1]: 6.01E-02 ± 0.01 mGy/Mbq and 6.01E-02 mGy/Mbq; Absorbed dose (AD average) Urinary Bladder Wall [1]: 4.10E-02 mGy/Mbq; Absorbed dose (AD average) Uterus [1]: 4.14E-02 mGy/Mbq; Effective dose (average) [1]: 5.28E-02; Absorbed dose (AD average) Adrenals [2]: 1.63E-02 mGy/Mbq; Absorbed dose (AD average) Brain [2]: 2.76E-02 mGy/Mbq; Absorbed dose (AD average) Esophagus [2]: 2.88E-02 mGy/Mbq; Absorbed dose (AD average) Eyes [2]: 2.76E-02 mGy/Mbq; Absorbed dose (AD average) Gallbladder Wall [2]: 3.50E-02 mGy/Mbq; Absorbed dose (AD average) Heart Wall [2]: 5.00E-02 mGy/Mbq; Absorbed dose (AD average) Kidneys [2]: 5.60E-02 ± 0.002 mGy/Mbq and 5.60E-02 mGy/Mbq; Absorbed dose (AD average) Left colon [2]: 1.18E-01 mGy/Mbq; Absorbed dose (AD average) Liver [2]: 2.29E-01 ± 0.02 mGy/Mbq and 2.29E-01 mGy/Mbq; Absorbed dose (AD average) Lungs [2]: 5.19E-02 ± 0.004 mGy/Mbq and 5.19E-02 mGy/Mbq; Absorbed dose (AD average) Osteogenic Cells [2]: 1.24E-01 ± 0.01 mGy/Mbq and 1.24E-01 mGy/Mbq; Absorbed dose (AD average) Pancreas [2]: 4.25E-02 ± 0.002 mGy/Mbq and 4.25E-02 mGy/Mbq; Absorbed dose (AD average) Prostate [2]: 2.77E-02 mGy/Mbq; Absorbed dose (AD average) Rectum [2]: 1.17E-01 mGy/Mbq; Absorbed dose (AD average) Red Marrow [2]: 3.37E-02 ± 0.003 mGy/Mbq and 3.37E-02 mGy/Mbq; Absorbed dose (AD average) Right colon [2]: 7.38E-02 mGy/Mbq; Absorbed dose (AD average) Salivary Glands [2]: 1.43E-01 ± 0.01 mGy/Mbq and 1.43E-01 mGy/Mbq; Absorbed dose (AD average) Small Intestine [2]: 5.69E-02 ± 0.02 mGy/Mbq and 5.69E-02 mGy/Mbq; Absorbed dose (AD average) Spleen [2]: 3.92E-02 ± 0.01 mGy/Mbq and 3.92E-02 mGy/Mbq; Absorbed dose (AD average) Stomach Wall [2]: 4.15E-02 mGy/Mbq; Absorbed dose (AD average) Testes [2]: 2.65E-02 mGy/Mbq; Absorbed dose (AD average) Thymus [2]: 2.77E-02 mGy/Mbq; Absorbed dose (AD average) Thyroid [2]: 2.76E-02 mGy/Mbq; Absorbed dose (AD average) Total Body [2]: 4.51E-02 ± 0.01 mGy/Mbq and 4.51E-02 mGy/Mbq; Absorbed dose (AD average) Urinary Bladder Wall [2]: 2.75E-02 mGy/Mbq; Effective dose (average) (ICRP 89 Adult Male, extrapolated, in mSv/MBq (unit assumed)): 4.69E-02; higher tissue doses vs. the 177Lu-labeled analogs (human extrapolation, average over tissues): ~ 38%
